The test system of assay [1] is M9-ENL1 cells. Put plainly: Chemical library screen, MTS assay. The class given is cell-based, human. To be noted: 10 μM, 48 hours. An excerpt:
(§1) To identify compounds active against leukemia stem cells, a library of drugs (n=312) with well-characterized pharmacokinetics and toxicology and a wide therapeutic window was compiled. This library was then screened to identify agents that reduced the viability of TEX and M9-ENL1 cells. TEX and M9-ENL1 cells were derived from lineage-depleted human cord blood cells (Lin-CB) transduced with TLS-ERG or MLL-ENL oncogenes, respectively, and, as shown previously, display properties of stem cells including hierarchal differentiation and marrow repopulation^14,16. In this screen, TEX and M9-ENL1 cells were treated with aliquots of the compounds. After incubation, cell growth and viability was measured by the MTS assay. From this screen, tigecycline was identified.
(§2) TEX, and M9-ENL-1 cells were seeded into 96-well polystyrene tissue culture plates (Corning). […] 72 (TEX) and 48 (M9-ENL-1) hours after incubation, cell growth and viability was measured by MTS assay. […]
(§3) Cell growth and viability was assessed by the MTS assay (Promega, Madison, Wis.) according to the manufacturer's instructions. Apoptosis and cell death was measured by Annexin V-fluoroscein isothiocyanate (FITC; Biovision Research Products, Mountain View, Calif.), propidium iodide staining and flow cytometry according to the manufacturer's instructions and as previously described^30. […]

For assay [2], the system named is TEX cells. The experiment in a line: Chemical library screen, MTS assay. In kind it is cell-based, human. To be noted: 10 μM, 72 hours.
Source text: as §1, §2, §3

Assay [3] has as its system primary human AML cells. In kind it is in vivo, NOD-SCID mice. To be noted: 100 mg/kg i.p. daily for three weeks, vs vehicle control. The procedure:
FIG. 3. Tigecycline has anti-leukemia activity in vivo. (A, B) Human leukemia (OCI-AML2) were injected subcutaneously into the flank of SCID mice. Seven days after injection, once tumors were palpable, mice were treated with tigecycline (50 mg/kg or 100 mg/kg twice daily by i.p. injection) or vehicle control (n=10 per group). Fourteen days after injection of cells, mice were sacrificed, tumors excised and the volume and mass of the tumors were measured. The tumor mass and the mean volume+SD are shown. Differences in tumor volume and mass were analyzed by an unpaired t-test: * p<0.001. (C) Tumours from two control mice, and three tigecycline-treated mice were excised after 5 days of treatment and total proteins were extracted and analyzed by western blotting for Cox-1, Cox-2, Cox-4, and tubulin. […] Following treatment, human leukemia cell engraftment in the injected right femur was measured by FACS analysis for human CD45^+CD19^−CD33^+ cells. […] Six weeks later, human leukemia cell engraftment in the injected right femur was measured by FACS analysis for human CD45^+CD19^−CD33^+ cells. […]
To assess tigecycline in mouse models of primary AML, primary human AML cells were isolated form a fresh peripheral blood sample from a patient with AML. A frozen aliquot was thawed, counted and resuspended in PBS. […]

Assay [4] has as its system Cox-1, Cox-2, Cox-4, grp78, XIAP. The experiment in a line: Immunoblotting of mitochondrially and cytosolically translated proteins. The class given is cell-based, human. To be noted: TEX, OCI-AML2 and two AML patients' cells, 2.5 μM and 5 μM. The procedure:
FIG. 4. […] (A) Cells from TEX, OCI-AML2 and two primary AML patients were treated with increasing concentrations (2.5 μM and 5 μM) of tigecycline for 36 and 48 hours of tigecycline. Total proteins were extracted and analyzed by western blotting for Cox-1, Cox-2, Cox-4, grp78, XIAP, actin and tubulin. (B) TEX and AML patient cells were treated with increasing concentrations (2.5 μM and 5 μM) of tigecycline. Cox-1, Cox-2, and Cox-4 mRNA expression relative 18S was determined by quantitative RT-PCR. Data is shown as mean±SD. (C) TEX cells were treated with increasing concentrations of tigecycline and chloramphenicol (CAP) for 72 hours. Complex I, II and IV enzyme activity relative to citrate synthase activity was determined as described in materials and methods. (D) Cells from TEX, primary AML patients, and normal donors were treated with increasing concentrations of tigecycline. Mitochondrial membrane potential (Δψ) was determined by staining cells with JC-1 dye, and flow cytometry analysis (Red/Green ratio). Reactive oxygen species generation (ROS) was determined by staining with h2-DCFDA and Dihydroethidium (DHE).
Total cell lysates were prepared from cells as described previously^32. […] Protein concentrations were measured by the DC Protein assay. […]

As for `CN(C)c1cc(NC(=O)CNC(C)(C)C)c(O)c2c1C[C@H]1C[C@H]3[C@H](N(C)C)C(O)=C(C(N)=O)C(=O)[C@@]3(O)C(O)=C1C2=O` [tigecycline], the “screen result, cell growth and viability” value in assay [1] and in assay [2] was “identified” in each case. For the same compound, the “engraftment of human AML cells (CD45+CD33+CD19-) in marrow” value in assay [3] is given as “significantly decreased”. In assay [4], the “expression of nuclear-encoded proteins XIAP or grp78” value is on record as “did not alter”. In addition, the “expression of Cox subunit proteins” value in assay [4] (36 and 48 hours) was “preferential decrease of mitochondrially-translated subunits I and II, over nuclear-translated subunit IV”.

Source of the values: patent publication US20120329761A1, “USE OF TIGECYCLINE FOR TREATMENT OF CANCER” (UNIVERSITY HEALTH NETWORK, priority 2010, published 2012).
